Data taken from patent US8242166B2, “C(10) ethyl ester and C(10) cyclopropyl ester substituted taxanes” (Florida State University Research Foundation, Inc., priority 2008, dated 2012).
Values joined by “and” are separate entries in the source; they are usually repeats but may differ in a detail not shown here. Equal entries are not always repeated. Where two headings read alike, the source gives them in different places.

Experiments:
[1] = test system: HCT116; assay: MTT cytotoxicity (IC50), HCT116; format: cell-based; details: Homo sapiens, HCT-116, 72 h, read-out: IN Vitro IC50 (nm) HCT116
Experimental: (§1) All cell lines were maintained in RPMI-1640 tissue culture medium (TCM, supplemented with antibiotics and 10% fetal bovine serum) and cultured at 37° C. in humidified air containing 5% CO2. To assess the antiproliferative effects of the test compounds, 172 μL of tumor cell suspension (1.45×10^4 cells/ml) were added to each well of a 96-well plate and incubated for 24 h at 37° C. in 5% CO2 in air to allow cells to adhere. Seven 2-fold drug dilutions in TCM/DMSO were performed in triplicate in separate 96-well plates and 28 μL was transferred to the wells containing tumor cells (200 μL final volume/0.1% DMSO). Plates were incubated for 72 h and cell viability was determined by adding 50 μL of warm TCM containing 5 mg/mL MTT (3-[4,5-dimethylthiazol-2-yl]-2,5-diphenyltetrazolium bromide) to each well and incubating for 1 h at 37° C. Plates were processed and the absorbances of the resulting solutions were measured by a plate reader at 570 nm. […] (GraphPad Prism version 4.00 for Windows). Studies were conducted by Taxolog, Inc., Tallahassee, Fla.

[2] = test system: PANC-1; assay: MTT cytotoxicity (IC50), PANC-1; format: cell-based; details: Homo sapiens, 72 h, read-out: IN Vitro IC50 (nm) Panc
Experimental: as §1, with “Compound 17932 was tested in four of these cell lines, while the remaining compounds were tested in all of these cell lines. All” for “All”

[3] = test system: DLD-1; assay: MTT cytotoxicity (IC50), DLD-1; format: cell-based; details: Homo sapiens
Experimental: as §1, with “Compound 17932 was tested in four of these cell lines, while the remaining compounds were tested in all of these cell lines. All” for “All”

[4] = test system: A375; assay: MTT cytotoxicity (IC50), A375; format: cell-based; details: Homo sapiens, A-375
Experimental: as §1, with “Compound 17932 was tested in four of these cell lines, while the remaining compounds were tested in all of these cell lines. All” for “All”

[5] = test system: A549; assay: MTT cytotoxicity (IC50), A549; format: cell-based; details: Homo sapiens, 72 h, read-out: IN Vitro IC50 (nm) A549
Experimental: as §1, with “Compound 17932 was tested in four of these cell lines, while the remaining compounds were tested in all of these cell lines. All” for “All”

[6] = test system: TK-10; assay: MTT cytotoxicity (IC50), TK-10; format: cell-based; details: Homo sapiens, 72 h, read-out: IN Vitro IC50 (nm) TK10
Experimental: as §1, with “Compound 17932 was tested in four of these cell lines, while the remaining compounds were tested in all of these cell lines. All” for “All”

[7] = test system: OVCAR5; assay: MTT cytotoxicity (IC50), OVCAR5; format: cell-based; details: Homo sapiens, OVCAR-5, 72 h, read-out: IN Vitro IC50 (nm) OVCAR5
Experimental: as §1, with “Compound 17932 was tested in four of these cell lines, while the remaining compounds were tested in all of these cell lines. All” for “All”

[8] = test system: HOP-18; assay: MTT cytotoxicity (IC50), HOP-18; format: cell-based; details: Homo sapiens, 72 h, read-out: IN Vitro IC50 (nm) HOP18
Experimental: as §1, with “Compound 17932 was tested in four of these cell lines, while the remaining compounds were tested in all of these cell lines. All” for “All”

[9] = test system: SK-MEL-28; assay: MTT cytotoxicity (IC50), SK-MEL-28; format: cell-based; details: Homo sapiens, 72 h, read-out: IN Vitro IC50 (nm) ske-mel28
Experimental: as §1, with “Compound 17932 was tested in four of these cell lines, while the remaining compounds were tested in all of these cell lines. All” for “All”

[10] = test system: SNB-19; assay: MTT cytotoxicity (IC50), SNB-19; format: cell-based; details: Homo sapiens, 72 h, read-out: IN Vitro IC50 (nm) SNB19
Experimental: as §1, with “Compound 17932 was tested in four of these cell lines, while the remaining compounds were tested in all of these cell lines. All” for “All”

[11] = test system: BxPC-3 cancer cell line; assay: MTT cytotoxicity (IC50), BxPC-3 (Oncodesign); format: cell-based; details: Homo sapiens
Experimental: BxPC-3 cancer cell line (Source ATCC) and culture medium were purchased and provided by Oncodesign (France).
Tumor cells (5,000 cells per well) were plated in 96-well flat-bottom microtitration plates (Ref 167008, Batch 083310, Nunc, Dutscher, Brumath, France) and incubated at 37° C. for 24 hours before treatment in 100 μl of drug-free RPMI 1640 medium supplemented with 10% FBS. Tumor cell lines were incubated for 72 hours with 10 concentrations of both test substances and TXT (40 to 0.07 nM using ½ step dilutions). Experiments were repeated three times, each assay being issued from quadruplicate. Control cells were treated with the vehicle alone. At the end of treatments, the cytotoxic activity was evaluated by a MTT assay. These studies were conducted at Oncodesign, France.

[12] = test system: MX1 human tumor xenografts
[13] = test system: human A375 melanoma xenograft; assay: A375 xenograft study e209 (Example 27)
Experimental: The endpoint was a tumor volume of 2,000 mm^3 and the study was terminated on Day 56. Efficacy was assessed by tumor growth delay and the number of partial and complete regressions. Animals with a CR that persisted through Day 56 were classified as long-term tumor-free survivors (TFS).

[14] = MTT, 72 h, read-out: IN Vitro IC50 (nm) DLD1
[15] = Resistance MDR1+, read-out: DLD1 Colon (Table 4, quantity not named; IC50 values as Table 2)
[16] = MTT, 72 h, read-out: IN Vitro IC50 (nm) A375
[17] = Resistance MRP9, read-out: A375 Melanoma (Table 4, quantity not named; IC50 values as Table 2)
[18] = BXPC-3, 72 h, Exp 1, MTT, 72 hours, read-out: IC50 (nM) BxPC-3
[19] = BXPC-3, 72 h, Exp 2, MTT, 72 hours, read-out: IC50 (nM) BxPC-3
[20] = BXPC-3, 72 h, Exp 3, MTT, 72 hours, read-out: IC50 (nM) BxPC-3
[21] = BXPC-3, mean of 3 experiments, read-out: IC50 Mean ± SD (nM) BxPC-3
[22] = 25 mg/kg iv qwk × 3, vehicle ET
[23] = 30 mg/kg iv q4d × 4, vehicle EL

CC(=O)O[C@@]12CO[C@@H]1C[C@H](O)[C@@]1(C)C(=O)[C@H](O)C3=C(C)[C@@H](OC(=O)[C@H](O)[C@@H](NC(=O)OC(C)(C)C)c4ccccc4)C[C@@](O)([C@@H](OC(=O)c4ccccc4)[C@H]21)C3(C)C [Docetaxel, docetaxel, reference compound]
IC50 [1]: 0.9 nM
IC50 [2]: 1.9 nM
IC50 [3, 14]: > 10 nM
IC50 [3, 15]: 20 nM
IC50 [4, 16]: 2.4 nM
IC50 [4, 17]: 2.4 nM
IC50 [5]: 1.3 nM
IC50 [6]: 1.4 nM
IC50 [7]: 1.1 nM
IC50 [8]: 3.4 nM
IC50 [9]: 2.1 nM
IC50 [10]: 1.9 nM
IC50 [11, 18]: 0.93 nM
IC50 [11, 19]: 2.2 nM
IC50 [11, 20]: 0.73 nM
IC50 [11, 21]: 1.29 ± 0.8 nM
% TGD ([12]; 25 mg/kg iv qd × 1): 249.47%
MTV (n), Day 60 ([12]; 25 mg/kg iv qd × 1): 0.00 (3) mm^3
Median TTE ([12]; 25 mg/kg iv qd × 1): 60 days
T-C ([12]; 25 mg/kg iv qd × 1): 42.83 days
CR (complete regression) ([12]; 25 mg/kg iv qd × 1, n=5): 3
NTR (non-treatment-related death) ([12]; 25 mg/kg iv qd × 1, n=5): 0
PR (partial regression) ([12]; 25 mg/kg iv qd × 1, n=5): 0
TFS (tumor-free survivor) ([12]; 25 mg/kg iv qd × 1, n=5): 2
TR (treatment-related death) ([12]; 25 mg/kg iv qd × 1, n=5): 0
mice survived to D60 ([12]; 25 mg/kg iv qd × 1, n=5): Three
transient CR ([12]; 25 mg/kg iv qd × 1, n=5): 1
BW Nadir ([13]; 25 mg/kg iv qwk × 3): −4.0% (25)
CR (complete regression) ([13]; 25 mg/kg iv qwk × 3, n=6): 0
NTR NTRm ([13]; 25 mg/kg iv qwk × 3, n=6): 0
PR (partial regression) ([13]; 25 mg/kg iv qwk × 3, n=6): 0
TFS (tumor-free survivor) ([13]; 25 mg/kg iv qwk × 3, n=6): 0
TR (treatment-related death) ([13]; 25 mg/kg iv qwk × 3, n=6): 0
% TGD [13, 22]: 49.06%
Median TTE [13, 22]: 26.92 days
T-C (tumor growth delay) ([13]; 25 mg/kg iv qwk × 3, vehicle ET, listed as 2): 8.9 days and 8.86 days

CCC(=O)O[C@H]1C(=O)[C@@]2(C)C([C@H](OC(=O)c3ccccc3)[C@]3(O)C[C@H](OC(=O)[C@H](O)[C@@H](NC(=O)OC4CCC4)c4cccs4)C(C)=C1C3(C)C)[C@]1(OC(C)=O)CO[C@@H]1C[C@@H]2O (stereo partly drawn) [Compound 19244]
IC50 [1]: 0.4 nM
IC50 [2]: 1.2 nM
IC50 [3, 14]: 1.8 nM
IC50 [3, 15]: 1.8 nM
IC50 [4, 16]: 0.6 nM
IC50 [4, 17]: 0.5 nM
IC50 [5]: 0.5 nM
IC50 [6]: 0.4 nM
IC50 [7]: 0.6 nM
IC50 [8]: 1.5 nM
IC50 [9]: 2 nM
IC50 [10]: 0.9 nM
IC50 [11, 18]: 0.53 nM
IC50 [11, 19]: 0.66 nM
IC50 [11, 20]: 1.03 nM
IC50 [11, 21]: 0.74 ± 0.26 nM
% TGD ([12]; 7.5 mg/kg iv qd × 1): −3% and −2.64%
Median TTE ([12]; 7.5 mg/kg iv qd × 1): 16.72 days
T-C ([12]; 7.5 mg/kg iv qd × 1): -0.45 days
activity (logrank test) ([12]; 7.5 mg/kg iv qd × 1): nonsignificant activities
CR (complete regression) ([12]; 7.5 mg/kg iv qd × 1, n=5): 0
NTR (non-treatment-related death) ([12]; 7.5 mg/kg iv qd × 1, n=5): 0
PR (partial regression) ([12]; 7.5 mg/kg iv qd × 1, n=5): 0
TFS (tumor-free survivor) ([12]; 7.5 mg/kg iv qd × 1, n=5): 0
TR (treatment-related death) ([12]; 7.5 mg/kg iv qd × 1, n=5): 0
% TGD ([12]; 15 mg/kg iv qd × 1): 83% and 83.42%
Median TTE ([12]; 15 mg/kg iv qd × 1): 31.49 days
T-C ([12]; 15 mg/kg iv qd × 1): 14.32 days
activity (logrank test) ([12]; 15 mg/kg iv qd × 1): nonsignificant activities
CR (complete regression) ([12]; 15 mg/kg iv qd × 1, n=5): 0
NTR (non-treatment-related death) ([12]; 15 mg/kg iv qd × 1, n=5): 0
PR (partial regression) ([12]; 15 mg/kg iv qd × 1, n=5): 0
TFS (tumor-free survivor) ([12]; 15 mg/kg iv qd × 1, n=5): 0
TR (treatment-related death) ([12]; 15 mg/kg iv qd × 1, n=5): 0
% TGD ([12]; 30 mg/kg iv qd × 1): 235% and 235.44%
MTV (n), Day 60 ([12]; 30 mg/kg iv qd × 1): 0.00 (2) mm^3
Median TTE ([12]; 30 mg/kg iv qd × 1): 57.59 days
T-C ([12]; 30 mg/kg iv qd × 1): 40.42 days
activity (logrank test) ([12]; 30 mg/kg iv qd × 1): significant activity
CR (complete regression) ([12]; 30 mg/kg iv qd × 1, n=5): 4
NTR (non-treatment-related death) ([12]; 30 mg/kg iv qd × 1, n=5): 0
PR (partial regression) ([12]; 30 mg/kg iv qd × 1, n=5): 1
TFS (tumor-free survivor) ([12]; 30 mg/kg iv qd × 1, n=5): 2
TR (treatment-related death) ([12]; 30 mg/kg iv qd × 1, n=5): 0
mice survived to D60 ([12]; 30 mg/kg iv qd × 1, n=5): two
transient CRs ([12]; 30 mg/kg iv qd × 1, n=5): 2
BW Nadir ([13]; 30 mg/kg iv q4d × 4): 10.4% (18)
MTV(n), Day 56 ([13]; 30 mg/kg iv q4d × 4): 0.00 (6) mm^3
CR (complete regression) ([13]; 30 mg/kg iv q4d × 4, n=6): 6
NTR NTRa/u ([13]; 30 mg/kg iv q4d × 4, n=6): 0
NTR NTRm ([13]; 30 mg/kg iv q4d × 4, n=6): 0
PR (partial regression) ([13]; 30 mg/kg iv q4d × 4, n=6): 0
TFS (tumor-free survivor) ([13]; 30 mg/kg iv q4d × 4, n=6): 6
TR (treatment-related death) ([13]; 30 mg/kg iv q4d × 4, n=6): 0
% TGD [13, 23]: 210.08%
Median TTE [13, 23]: 56 days
T-C [13, 23]: 37.94 days
